Consider two substances from patent publication US20060008466A1, “Methods for treating and preventing microbial infections” (University of Saskatchewan, priority 2004, published 2006).

Bridge positions count the residues as written; N and C are the ends. Ends that are not written are not given here.

In assay [1] the test system is B. bronchiseptica. The assay can be described thus: Transmission electron microscopy of B. bronchiseptica after pBD-1 treatment. It is filed as cell-based. Particulars: 80 μg/ml. As for the experimental part: To determine the potential mechanism of action of pBD-1, transmission electron microscopy (TEM) was employed to evaluate the effect of pBD-1 on the bacterial membrane of B. pertussis and B. […] and incubated for 60 minutes at 37° C. Bacteria were washed with PBS, fixed with an equal volume of 5% glutaraldehyde in 0.1 M sodium cacodylate buffer (pH 7.4), and centrifuged at 5000 g for 5 minutes. Cells were resuspended in 1% agarose and pelleted. The bacterial pellets were stored in the fixative (2.5% glutaraldehyde) at 4° C. for 2 hours. The samples were dehydrated and en bloc stained with uranyl acetate in a series of ethanol concentrations and then embedded in Epon/Araldite. Thin sections were cut using an ultramicrotome with a diamond knife, mounted on specimens grids and stained with uranyl acetate and lead citrate before being examined on a transmission electron microscope (Philips 410LS) operating at 80 kV and at magnification ranging from 24000-55000×.

A further assay has as its system Candida albicans. Particulars: 40 μg/ml; cited from earlier work.
The test system of assay [2] is B. pertussis. The assay can be described thus: In vitro bactericidal activity against B. pertussis in SS medium, viable counts (CFU) on BG agar. It counts as cell-based, B. pertussis strain Tohama I. On the procedure: The B. pertussis strain used in these experiments was Tohama I. Bacterial suspensions were stored at −70° C. in casamino acid plus 10% glycerol. Organisms were initially grown on the surface of Bordet-Gengou (BG) agar containing 15% (vol/vol) defibrinated sheep blood and 40 μg/ml of Cephalexin at 37° C. for 48 hrs. The bacterial cells were harvested and washed in phosphate-buffered saline (PBS, pH 7.2) by centrifugation at 2500 g for 10 min. The pellets were resuspended in saline and adjusted to a specified bacterial titer by determining the optical density at 600 nm using a spectrophotometer; The corresponding viable counts of these suspensions were measured by plating out serial dilutions of the bacterial suspension onto BG-agar and incubating at 37° C. for 4-5 days.
To examine the bactericidal effect of defensin against B. pertussis, 10 μl of bacterial suspension (OD600 nm of 0.2) was added to 200 μl of Stainer and Scholte (SS) broth medium with or without chemically synthesized defensin at different concentrations in a 96 well plate and incubated at 37° C. for up to 30 hours. At the end of each incubation period (6 hrs, 18 hrs, 24 hrs, 30 hrs), the culture medium was immediately removed for quantification of viable bacteria. The culture medium with or without defensin was plated onto BG agar plates and incubated at 37° C. for up to 4 days after which time the number of colonies were counted. The number of surviving bacteria was estimated by colony-forming units (CFU). The results were confirmed by three independent experiments compared with results from control bacterial culture (no peptide).
20, 40 and 80 μg of pBD-1 was added to bacterial culture and incubated at 37° C. Aliquots were removed at 6, 18 and 30 hr post incubation and incubated for 4 days on BG plates at 37° C.
(§1) Bactericidal activity of bronchoalveolar lavage (BAL) fluid obtained from non-infected piglets was analyzed against B. pertussis in vitro. Non-infected piglets, either 4-5 weeks old or newborn piglets (6 hours old, colostrum-deprived or colostrum-fed), were euthanized and BALs were collected in Stainer-Scholte (SS) medium. The BAL fluid was obtained by filling the lungs with 10 ml of SS medium and withdrawing as much fluid as possible (this procedure was performed once). Alveolar macrophages and other cells were removed by centrifugation at 500 g for 10 minutes. BALs (290 μl) were co-cultured in microtiter plates with 10 μl bacterial suspension containing 5-7×10^6 CFU of B. pertussis at 37° C. Supernatants were plated onto BG agar plates at different time points to evaluate the number of viable bacteria. The sensitivity of B. pertussis to synthetically derived pBD-1 and human beta-defensin 2 (hBD-2) was assayed by co-culturing appropriate concentrations of pBD-1 or hBD-2 in SS-medium (280 μl) with 5-7×10^6 CFU (10 μl) bacteria. Plates were incubated at 37° C. for 2, 6, 18 and 24 hours. The same procedures were followed to investigate the inhibitory effects of BAL, pBD-1 and hBD-2 against B. bronchiseptica in vitro.

Assay [3] has as its system B. pertussis. Put plainly: In vivo antimicrobial activity: pBD-1 delivered into lungs of newborn piglets, challenge with B. pertussis. As for the experimental part: Pregnant Landrace sows were purchased from the Saskatoon Prairie Swine Centre, University of Saskatchewan. Sows were induced to farrow by intramuscular (i.m.) injection of prostaglandin (Planate) (Schering, Quebec, Canada) at day 113 of gestation. Piglets were born at day 114-115 of gestation. Nursing piglets were kept within the same room, but in separated pens and monitored very closely. The piglets were challenged at 3-5 days of age. All experiments were conducted in accordance with the ethical guidelines of the University of Saskatchewan and the Canadian Council for Animal Care (CCAC).
Newborn piglets were anaesthetized with isoflurane and intubated using a laryngoscope. Infection was initiated by delivering 5×10^9 CFU of B. pertussis strain Tohama I intrapulmonarily (craniodorsal of the bifurcation) through a MICRO-RENATHANE tube (0.95) (Braintree Scientific Inc., Braintree, Mass., USA), which was inserted through an endotracheal tube (3 mm) (Jorgensen Laboratories Inc. Loveland, Colo., USA). The bottom-end of the MICRO-RENATHANE tube was sealed and minute holes were made for the equal distribution of bacteria. Piglets were monitored twice daily for clinical symptoms including fever and respiratory symptoms such as nasal discharge, non paroxysmal cough and breathing difficulties. Piglets were euthanized by i.p. injection of 5 ml of Euthanyl (Sodium barbiturate; Bimeda-MTC, Ont, Canada) at different time points over a 10 day period post challenge. The thoracic and the abdominal cavities and the lungs were examined for any lesions and abnormalities such as pleuritis or local collections of blood and fluids in the thorax were noted.
The antimicrobial activity of pBD-1 was tested in vivo by delivery of pBD-1 into the lungs of newborn piglets prior to challenge with B. pertussis. Pregnant sows, Landrace, were purchased from Saskatoon Prairie Swine Centre, University of Saskatchewan. Sows were farrowed out by i.m. injection of prostaglandin (Planate). Three to four day old colostrum-fed piglets were anaesthetized with isoflurane. 500 μg of pBD-1 dissolved in 1.5 ml PBS was delivered to the lung using a tube placed through the trachea in front of the bifurcation which marks the beginning of the lung (craniodorsal of bifurcation). A volume of 1.5 ml was delivered. Following the delivery of the pBD-1, all piglets were challenged with 5×10^9 cfu bacteria (n=10) by the same procedure. Control animals received saline instead of pBD-1 and were subsequently challenged. Piglets were kept with their sows within the same room in separated pens. Piglets were monitored twice a day.
In addition, the number of bacteria in BAL fluid and lung lesions was examined over a 10 day period. The BAL fluid was obtained by filling the lungs with 15 ml of SS-medium and withdrawing as much fluid as possible. To quantify the presence of B. pertussis in the BAL, fluid samples were centrifuged to remove debris and host cells; supernatant and dilutions thereof were plated onto BG plates and incubated at 37° C. for up to a week. To determine the number of bacteria within tissues, lesions were excised, weighed, homogenized and plated onto BG agar plates.

Another assay concerns Streptococcus suis. The assay can be described thus: In vitro inhibitory activity against Streptococcus suis. It counts as cell-based. Particulars: FIG. 6B. From the text:
(§2) The inhibitory activity of pBD-1 on the Gram-negative bacteria Actinobacillus pleuropneumoniae, Bordetella bronchiseptica, Streptococcus suis and E. coli was also examined. FIGS. 6A-6B show the results on A. pleuropneumoniae, S. suis, B. bronchiseptica and B. pertussis. The results for E. coli are not shown.

Assay [4] deals with B. pertussis. Put plainly: Transmission electron microscopy of B. pertussis after pBD-1 treatment. Particulars: 20 and 40 μg/ml; 60 minutes at 37° C. It counts as cell-based. On the procedure:
To determine the potential mechanism of action of pBD-1, transmission electron microscopy (TEM) was employed to evaluate the effect of pBD-1 on the bacterial membrane of B. pertussis and B. bronchiseptica following treatment with pBD-1. pBD-1 was added at a final concentration of 20 μg/ml or 40 μg/ml to 5-9×10^9 CFU bacteria and incubated for 60 minutes at 37° C. Bacteria were washed with PBS, fixed with an equal volume of 5% glutaraldehyde in 0.1 M sodium cacodylate buffer (pH 7.4), and centrifuged at 5000 g for 5 minutes. Cells were resuspended in 1% agarose and pelleted. The bacterial pellets were stored in the fixative (2.5% glutaraldehyde) at 4° C. for 2 hours. The samples were dehydrated and en bloc stained with uranyl acetate in a series of ethanol concentrations and then embedded in Epon/Araldite. Thin sections were cut using an ultramicrotome with a diamond knife, mounted on specimens grids and stained with uranyl acetate and lead citrate before being examined on a transmission electron microscope (Philips 410LS) operating at 80 kV and at magnification ranging from 24000-55000×.

Another assay relates to Salmonella typhimurium. Particulars: 40 μg/ml; cited from earlier work.
In assay [5] the test system is Actinobacillus pleuropneumoniae. Put plainly: In vitro inhibitory activity against Actinobacillus pleuropneumoniae. It counts as cell-based. Particulars: FIG. 6A. As for the experimental part:
(§3) E. coli, Actinobacillus pleuropneumoniae and B. bronchiseptica were grown on agar plates using routine procedures. The bacteria were washed off the plates, washed in saline and subsequently resuspended in media. They were co-incubated with pBD-1 in varying doses and incubated for various time periods (6-48 hours). The bacteria were quantified by plating the suspension onto agar plates.
as §2

The test system of assay [6] is B. bronchiseptica. Put plainly: In vitro bactericidal activity against B. bronchiseptica, plate counts. It is filed as cell-based. On the procedure:
as §3, §1

A further assay deals with Listeria monocytogenes. Particulars: 40 μg/ml; cited from earlier work.
The next assay deals with E. coli. The assay can be described thus: In vitro inhibitory activity against E. coli. It is filed as cell-based. Particulars: results not shown. On the procedure: as §3, §2
The subject of the next assay is Escherchia coli. Particulars: 40 μg/ml; cited from earlier work.
In the next assay the test system is B. pertussis isolates. Particulars: cited from earlier work.

Take “H-KNIGNSVSCLRNKGVCMPGKCAPKMKQIGTCGMPQVKCCKRK-NH2 (disulfide 9-38, 16-31, 21-39) [pBD-1]”: the “ultrastructural effect on bacteria” value in the assay on B. bronchiseptica [1] is “did not result in major ultrastructural abnormalities or discrete holes”. The salt-dependent bactericidal activity result with Candida albicans, with Salmonella typhimurium, with Listeria monocytogenes and with Escherchia coli was “has been demonstrated” each time. For the same substance, in the assay with B. pertussis [2] (10 μg/ml, 1/10 diluted SS medium in PBS, shorter period of time (FIG. 5B)), the “bactericidal activity in diluted SS medium” value is recorded as “even stronger bactericidal activity”. In addition, the “growth inhibition in comparison with control medium” value with B. pertussis [2] (20 μg/ml, 6 hours, repeated assay (FIG. 5A)) is on record as “at least 2 logs”. Further, the “inhibition of B. pertussis growth” value in the assay on B. pertussis [2] (40 μg/ml, 18 hours of incubation (FIG. 4)) is “complete inhibition”. Further, the “neutralization of 5-8×10^6 CFU of B. pertussis” value in the assay with B. pertussis [2] (80 μg/ml, 18 hours, repeated assay (FIG. 5A)) is reported as “completely neutralized”. In addition, the “effect of serum on antimicrobial activity” value with B. pertussis [2] (10-50% rabbit serum added to the medium) is “did not inhibit”. Besides, the “inhibitory effect against B. pertussis, dependence” value in the assay with B. pertussis [2] (20, 40, 80 μg, 6, 18, 30 hr) was “dose and time dependent”. For the same substance, in the assay on B. pertussis [2] (addition of salt), the “antimicrobial activity against B. pertussis on addition of salt” value was “significantly reduced”. Further, in the assay on B. pertussis [2] (after 6 hours of incubation, 20-80 μg pBD-1), the “reduction in bacterial growth compared to untreated control wells” value is listed as “about 2 logs”. In the assay on B. pertussis [2] (after 18 hours, depending on the dose used), the “reduction of bacterial growth” value was “more than 100,000 fold”. For the same substance, in the assay on B. pertussis [2] (after 30 hours), the “reduction of the bacterial growth” value is recorded as 1,000,000 fold. Moreover, the “protection of infected piglets” value in the assay on B. pertussis [3] (500 μg into the lung at time of challenge, 5×10^9 CFU B. pertussis) is “complete protection”. For the same substance, the “clinical symptoms (fever, respiratory symptoms)” value in the assay with B. pertussis [3] (500 μg into the lung, all treated animals, all controls had fever and respiratory symptoms) is recorded as “no clinical symptoms”. Further, in the assay with B. pertussis [3] (500 μg, at 2, 4, 7 and 10 days post infection), the “clinical symptoms and pathological alterations” value is recorded as “total absence”. The “lesions in the histopathology of lung tissues” value in the assay on B. pertussis [3] (500 μg, compared with challenged control piglets) is “either minor or no lesions”. The “numbers of bacteria in homogenized lung tissues” value in the assay on B. pertussis [3] (500 μg, days 2, 4, 7 and 10 post infection, p<0.005 (FIG. 10B)) is “significantly lower numbers of bacteria”. The “numbers of isolated bacteria in BALs” value in the assay on B. pertussis [3] (500 μg, days 2, 4 and 7 post infection, p<0.0001 (FIG. 10A)) was “significantly reduced”. The inhibitory activity entry in the assay with Streptococcus suis is listed as “Inhibitory activity was observed”; in assay [5], “Inhibitory activity was observed”; with B. bronchiseptica [6] (FIG. 6C) it was “Inhibitory activity was observed against all of these organisms except B. bronchiseptica”; in the assay with E. coli, “Inhibitory activity was observed”. The “morphological effect on the bacterial cell surface” value in the assay with B. pertussis [4] is recorded as “substantial morphological damage”. The “growth of B. bronchiseptica” value in the assay on B. bronchiseptica [6] (40 μg/ml, 6 and 24 hours (FIG. 7B)) is “unaffected”. Also, in the assay with B. bronchiseptica [6] (160 μg/ml, up to 48 hours incubation), the “susceptibility of B. bronchiseptica” value is on record as “resistant”.
Regarding “human β-defensin-1: human β-defensin-1, cited from Baneman et al. as without effect on B. pertussis (DHYNCVSSGGQCLYSACPIFTKIQGTCYRGKAKCCK; ends and bridges not checked; cysteine pairing not given here; UniProt P60022 33-68, looked up)”, the “effect on B. pertussis isolates” value in the assay with B. pertussis isolates is “no effect”.
